Test results published in patent US8329904B2, “Azacyclic derivatives” (Hoffmann-La Roche Inc., priority 2009, dated 2012).

Target: T1, human HSL (Homo sapiens, UniProt Q05469)
T1 construct: overlapping PCR to generate a full length human HSL ORF with a 3′-His6 tag; His6 (C); made in house; host or cells: High 5 insect cells (baculovirus, pFast-BAC)
T1 sequence (Q05469 1-1076): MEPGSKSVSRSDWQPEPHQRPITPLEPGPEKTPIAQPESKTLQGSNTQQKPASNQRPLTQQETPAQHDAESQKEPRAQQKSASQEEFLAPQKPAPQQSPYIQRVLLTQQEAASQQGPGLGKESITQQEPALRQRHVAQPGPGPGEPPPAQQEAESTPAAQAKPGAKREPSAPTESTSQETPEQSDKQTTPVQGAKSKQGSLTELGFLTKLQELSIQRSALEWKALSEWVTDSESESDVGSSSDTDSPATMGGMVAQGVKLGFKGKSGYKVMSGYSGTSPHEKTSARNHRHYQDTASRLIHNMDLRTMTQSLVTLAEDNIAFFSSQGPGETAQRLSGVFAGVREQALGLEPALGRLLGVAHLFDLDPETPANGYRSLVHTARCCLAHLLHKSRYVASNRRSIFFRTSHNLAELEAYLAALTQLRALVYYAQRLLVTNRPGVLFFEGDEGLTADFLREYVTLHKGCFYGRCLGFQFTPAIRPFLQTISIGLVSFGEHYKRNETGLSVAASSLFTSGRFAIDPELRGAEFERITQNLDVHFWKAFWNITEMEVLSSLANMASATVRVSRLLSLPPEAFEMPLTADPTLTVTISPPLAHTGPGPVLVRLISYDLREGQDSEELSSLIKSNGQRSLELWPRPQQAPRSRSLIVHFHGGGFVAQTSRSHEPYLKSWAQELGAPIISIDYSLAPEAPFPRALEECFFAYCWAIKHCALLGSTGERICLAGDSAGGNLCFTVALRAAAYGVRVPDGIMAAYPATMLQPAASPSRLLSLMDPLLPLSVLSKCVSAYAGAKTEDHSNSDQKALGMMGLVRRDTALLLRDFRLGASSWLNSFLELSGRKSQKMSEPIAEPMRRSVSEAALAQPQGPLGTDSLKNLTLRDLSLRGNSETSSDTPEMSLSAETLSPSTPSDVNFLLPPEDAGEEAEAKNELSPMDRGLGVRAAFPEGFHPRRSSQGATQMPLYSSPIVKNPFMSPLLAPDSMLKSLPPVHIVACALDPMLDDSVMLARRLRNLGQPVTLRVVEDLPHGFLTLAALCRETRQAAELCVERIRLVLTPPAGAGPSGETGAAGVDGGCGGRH
Test: Human Hormone-Sensitive Lipase (HSL) Enzyme Inhibition Assay
Type: biochemical
Conditions: colorimetric assay, 2,3-dimercapto-1-propanol tributyrate (DMPT) substrate, 37° C. for 20 minutes, absorbance at 405 nm; read-out: HSL hum IC50
Outline: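 Colorimetric thioester hydrolysis: compounds in DMSO series mixed with DMPT (1.5 mM) in MOPS pH 7.2 with BSA, then baculovirus-expressed His6-tagged full-length human HSL added, 37° C, 20 min. DTNB plus detergents added, 15 min room temperature, absorbance at 405 nm.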

| SMILES | IC50 |
| --- | --- |
| O=C1N(c2ccc(OC(F)(F)F)cc2)CCC12CCN(S(=O)(=O)c1ccccc1C(F)(F)F)CC2 [Example 68, 2-(4-Trifluoromethoxy-phenyl)-8-(2-trifluoromethyl-benzenesulfonyl)-2,8-diaza-spiro[4.5]decan-1-one] | 40 nM |
| CCc1ccc(N2CCC3(CCN(S(=O)(=O)c4ccc(C(F)(F)F)cc4Cl)CC3)C2=O)cc1 [Example 69, 8-(2-Chloro-4-trifluoromethyl-benzenesulfonyl)-2-(4-ethyl-phenyl)-2,8-diaza-spiro[4.5]decan-1-one] | 310 nM |
| O=C1N(c2ccc(OC(F)(F)F)cc2)CCC12CCN(S(=O)(=O)c1ccc(C(F)(F)F)cc1Cl)CC2 [Example 70, 8-(2-Chloro-4-trifluoromethyl-benzenesulfonyl)-2-(4-trifluoromethoxy-phenyl)-2,8-diaza-spiro[4.5]decan-1-one] | 140 nM |
| O=C1N(c2ccc(C3CC3)cc2)CCC12CCN(S(=O)(=O)c1ccccc1C(F)(F)F)CC2 [Example 71, 2-(4-Cyclopropyl-phenyl)-8-(2-trifluoromethyl-benzenesulfonyl)-2,8-diaza-spiro[4.5]decan-1-one] | 80 nM |
| O=C1N(c2ccc(C3CC3)cc2)CCC12CCN(S(=O)(=O)c1ccc(F)cc1C(F)(F)F)CC2 [Example 72, 2-(4-Cyclopropyl-phenyl)-8-(4-fluoro-2-trifluoromethyl-benzenesulfonyl)-2,8-diaza-spiro[4.5]decan-1-one] | 110 nM |
| O=C1N(c2ccc(CC(F)(F)F)cc2)CCC12CCN(S(=O)(=O)c1ccccc1C(F)(F)F)CC2 [Example 73, 2-[4-(2,2,2-Trifluoro-ethyl)-phenyl]-8-(2-trifluoromethyl-benzenesulfonyl)-2,8-diaza-spiro[4.5]decan-1-one] | 80 nM |
| CCc1ccc(N2CCC3(CCN(S(=O)(=O)c4ccccc4I)CC3)C2=O)cc1 [Example 74, 2-(4-Ethyl-phenyl)-8-(2-iodo-benzenesulfonyl)-2,8-diaza-spiro[4.5]decan-1-one] | 200 nM |
| CCc1ccc(N2CCC3(CCN(S(=O)(=O)c4ccc(F)cc4C(F)(F)F)CC3)C2=O)cc1 [Example 75, 2-(4-Ethyl-phenyl)-8-(4-fluoro-2-trifluoromethyl-benzenesulfonyl)-2,8-diaza-spiro[4.5]decan-1-one] | 260 nM |
| O=C1N(c2ccc(OC(F)(F)F)cc2)CCC12CCN(S(=O)(=O)c1ccc(F)cc1C(F)(F)F)CC2 [Example 76, 8-(4-Fluoro-2-trifluoromethyl-benzenesulfonyl)-2-(4-trifluoromethoxy-phenyl)-2,8-diaza-spiro[4.5]decan-1-one] | 190 nM |
| O=C1N(c2ccc(C3CC3)cc2)CCC12CCN(S(=O)(=O)c1ccc(C(F)(F)F)cc1Cl)CC2 [Example 77, 8-(2-Chloro-4-trifluoromethyl-benzenesulfonyl)-2-(4-cyclopropyl-phenyl)-2,8-diaza-spiro[4.5]decan-1-one] | 180 nM |
| O=C1N(c2ccc(CC(F)(F)F)cc2)CCC12CCN(S(=O)(=O)c1ccccc1OC(F)(F)F)CC2 [Example 78, 2-[4-(2,2,2-Trifluoro-ethyl)-phenyl]-8-(2-trifluoromethoxy-benzenesulfonyl)-2,8-diaza-spiro[4.5]decan-1-one] | 30 nM |
| O=C1N(c2ccc(OCC(F)(F)F)cc2)CCC12CCN(S(=O)(=O)c1ccccc1OC(F)(F)F)CC2 [Example 79, 2-[4-(2,2,2-Trifluoro-ethoxy)-phenyl]-8-(2-trifluoromethoxy-benzenesulfonyl)-2,8-diaza-spiro[4.5]decan-1-one] | 40 nM |
| O=C1N(c2ccc(OS(=O)(=O)C3CC3)cc2)CCC12CCN(S(=O)(=O)c1ccccc1OC(F)(F)F)CC2 [Example 80, Cyclopropanesulfonic acid 4-[1-oxo-8-(2-trifluoromethoxy-benzenesulfonyl)-2,8-diaza-spiro[4.5]dec-2-yl]-phenyl ester] | 50 nM |
| O=C1N(c2ccc(CC(F)(F)F)cc2)CCC12CCN(S(=O)(=O)c1ccc(F)cc1C(F)(F)F)CC2 [Example 81, 8-(4-Fluoro-2-trifluoromethyl-benzenesulfonyl)-2-[4-(2,2,2-trifluoro-ethyl)-phenyl]-2,8-diaza-spiro[4.5]decan-1-one] | 90 nM |
| O=C1N(c2ccc(C3CC3)cc2)CCC12CCN(S(=O)(=O)c1ccccc1OC(F)(F)F)CC2 [Example 82, 2-(4-Cyclopropyl-phenyl)-8-(2-trifluoromethoxy-benzenesulfonyl)-2,8-diaza-spiro[4.5]decan-1-one] | 110 nM |
| CS(=O)(=O)Oc1ccc(N2CCC3(CCN(S(=O)(=O)c4ccc(F)cc4C(F)(F)F)CC3)C2=O)cc1 [Example 83, Methanesulfonic acid 4-[8-(4-fluoro-2-trifluoromethyl-benzenesulfonyl)-1-oxo-2,8-diaza-spiro[4.5]dec-2-yl]-phenyl ester] | 40 nM |
| CCCCOc1ccc(N2CCC3(CCN(S(=O)(=O)CC(C)C)CC3)C2=O)cc1 [Example 84, 2-(4-Butoxy-phenyl)-8-(2-methyl-propane-1-sulfonyl)-2,8-diaza-spiro[4.5]decan-1-one] | 200 nM |
| CCC(C)Oc1ccc(N2CCC3(CCN(S(=O)(=O)CC(C)C)CC3)C2=O)cc1 (stereo not shown) [Example 85, 2-(4-sec-Butoxy-phenyl)-8-(2-methyl-propane-1-sulfonyl)-2,8-diaza-spiro[4.5]decan-1-one] | 100 nM |
| CC(C)CS(=O)(=O)N1CCC2(CCN(c3ccc(OC(C)C(F)(F)F)cc3)C2=O)CC1 (stereo not shown) [Example 86, 8-(2-Methyl-propane-1-sulfonyl)-2-[4-(2,2,2-trifluoro-1-methyl-ethoxy)-phenyl]-2,8-diaza-spiro[4.5]decan-1-one] | 80 nM |
| CC(C)Oc1ccc(N2CCC3(CCN(S(=O)(=O)c4ccccc4OC(F)(F)F)CC3)C2=O)cc1 [Example 87, 2-(4-Isopropoxy-phenyl)-8-(2-trifluoromethoxy-benzenesulfonyl)-2,8-diaza-spiro[4.5]decan-1-one] | 20 nM |
| CCCCOc1ccc(N2CCC3(CCN(S(=O)(=O)c4ccccc4OC(F)(F)F)CC3)C2=O)cc1 [Example 88, 2-(4-Butoxy-phenyl)-8-(2-trifluoromethoxy-benzenesulfonyl)-2,8-diaza-spiro[4.5]decan-1-one] | 50 nM |
| CC(Oc1ccc(N2CCC3(CCN(S(=O)(=O)c4ccccc4OC(F)(F)F)CC3)C2=O)cn1)C(F)(F)F (stereo not shown) [Example 89, 8-(2-Trifluoromethoxy-benzenesulfonyl)-2-[6-(2,2,2-trifluoro-1-methyl-ethoxy)-pyridin-3-yl]-2,8-diaza-spiro[4.5]decan-1-one] | 30 nM |
| CCC(C)Oc1ccc(N2CCC3(CCN(S(=O)(=O)c4ccccc4OC(F)(F)F)CC3)C2=O)cc1 (stereo not shown) [Example 90, 2-(4-sec-Butoxy-phenyl)-8-(2-trifluoromethoxy-benzenesulfonyl)-2,8-diaza-spiro[4.5]decan-1-one] | 20 nM |
| C=Cc1ccc(N2CCC3(CCN(S(=O)(=O)c4ccccc4Cl)CC3)C2=O)cc1 [Example 91, 8-(2-Chloro-benzenesulfonyl)-2-(4-vinyl-phenyl)-2,8-diaza-spiro[4.5]decan-1-one] | 40 nM |
| CC(C)Oc1ccc(N2CCC3(CCN(S(=O)(=O)CC4CCC4)CC3)C2=O)cc1 [Example 92, 8-Cyclobutylmethanesulfonyl-2-(4-isopropoxy-phenyl)-2,8-diaza-spiro[4.5]decan-1-one] | 170 nM |
| O=C1N(c2ccc(OC(F)(F)F)cc2)CCC12CCN(S(=O)(=O)CC1CCC1)CC2 [Example 93, 8-Cyclobutylmethanesulfonyl-2-(4-trifluoromethoxy-phenyl)-2,8-diaza-spiro[4.5]decan-1-one] | 90 nM |
| CC(C)CS(=O)(=O)N1CCC2(CCN(c3ccc(OCC4CC4)cc3)C2=O)CC1 [Example 94, 2-(4-Cyclopropylmethoxy-phenyl)-8-(2-methyl-propane-1-sulfonyl)-2,8-diaza-spiro[4.5]decan-1-one] | 270 nM |
| CC(C)Oc1ccc(N2CCC3(CCN(S(=O)(=O)C4CC4)CC3)C2=O)cc1 [Example 95, 8-Cyclopropanesulfonyl-2-(4-isopropoxy-phenyl)-2,8-diaza-spiro[4.5]decan-1-one] | 360 nM |
